What was measured:
[1] = system: mice with asthma induced by ovalbumin; assay: Accumulation of eosinophiles in airway (BALF cell count) of mice with asthma induced by ovalbumin (Example 5); type: in vivo, mice (Balb/c); conditions: 2nd to 23rd day, negative control 62.7 ± 4.3, n=5
Method: (§1) In order to prepare animal models with asthma, 0.5 ml of ovalbumin solution (500 μg of ovalbumin and 10 mg of alumina gel were dissolved in 1 ml of PBS) was injected into abdominal cavities of twenty 5-week old female mice(Balb/c, Orient, Seoul) on first and 10th experiment day. The ovalbumin solution was sprayed on each mouse on the 21st, the 22nd and the 23rd day to induce asthma.
(§2) Mice (n=15) with asthma induced by ovalbumin were divided into three groups; one was used as a negative control treated with nothing and two other groups were used as experimental groups each treated with cyanidin glycoside by 1.5 mg/kg and 4.5 mg/kg, respectively. Cyanidin glycoside was orally administered once a day in succession from the 2nd day to the 23rd day.
24 hours after final sensitization, each mouse was sacrificed using ether and a microtube was connected into trachea. 0.8 ml of PBS was injected and recovered through the microtube, which was repeated twice. The obtained bronchoalveolar lavage fluid (BALF) was centrifuged to separate cells in airway lumen and various proteins secreted from the cells and lung.
The separated cells were fixed on a slide using cytospin and stained with Diff-Quick staining solution. Photographs were taken by a digital camera attached on Carzeiss microscope (model: AXIOVERT 25-CEL). 5 random regions per each sample were picked to count eosinophiles, and the percentage of eosinophiles in each sample was represented in Table 1.

[2] = system: mice with asthma induced by ovalbumin; assay: Inflammation in lung of mice with asthma induced by ovalbumin (microphotographs, Example 5); type: in vivo, mice (Balb/c); conditions: 1.5 mg/kg and 4.5 mg/kg orally once a day; FIG. 4C and 4D
Method: as §1, §2
Precisely, as cyanidin glycoside concentration increased, the percentage of eosinophiles in airway decreased to 49% and 38% each; compared with a negative control. […] Inflammation in lung cells of the sacrificed mice was also investigated and the result was represented in FIG. 4.

[3] = system: mice with asthma induced by ovalbumin; assay: Inflammation in lung of mice with asthma induced by ovalbumin (microphotographs, Examples 2 and 4); type: in vivo, mice (C57BL/6); conditions: intraperitoneal injection twice
Method: At first, in order to prepare animal models of asthma, 200 μl of ovalbumin solution (ovalbumin 200 μg and alumina gel 1000 μg were dissolved in physiological saline) was injected in each abdominal cavity of twenty 10-week old female mice (C57BL/6, Damul Science, Daejeon, Korea). Two weeks later, 200 μl of ovalbumin solution(2% w/v) was sprayed on each mouse to sensitize it. 200 μl of 1% ovalbumin solution was sprayed again on the 21st, the 22nd and the 23rd day, and 10% ovalbumin solution was sprayed again on the 25th day to sensitize.
The above mice with asthma induced by sensitizing with 10% ovalbumin were divided into two groups; one was used as a negative control group treated with nothing and the other was treated with 10 mg/kg of black rice extract. Black rice extract was administered by intraperitoneal injection and the injection was performed twice on the 24th and the 25th day from the treatment of ovalbumin.
48 hours after the treatment of black rice extract, mice were sacrificed using ether. Inflammation in lung of each mouse was investigated. […] Therefore, it was confirmed that black rice extract could inhibit asthma effectively. […]

[4] = system: mice with asthma induced by ovalbumin; assay: Accumulation of eosinophiles in airway (BALF cell count) of mice with asthma induced by ovalbumin (Example 3); type: in vivo, mice (C57BL/6); conditions: FIG. 2; for percentage of eosinophiles in airway: intraperitoneal injection twice, ovalbumin-exposed mice 58%
Method: At first, in order to prepare animal models of asthma, 200 μl of ovalbumin solution (ovalbumin 200 μg and alumina gel 1000 μg were dissolved in physiological saline) was injected in each abdominal cavity of twenty 10-week old female mice (C57BL/6, Damul Science, Daejeon, Korea). Two weeks later, 200 μl of ovalbumin solution(2% w/v) was sprayed on each mouse to sensitize it. 200 μl of 1% ovalbumin solution was sprayed again on the 21st, the 22nd and the 23rd day, and 10% ovalbumin solution was sprayed again on the 25th day to sensitize. […] Each compound was administered by intraperitoneal injection and the injection was performed twice on the 24th and the 25th day from the treatment of ovalbumin. On the second day from the treatment, each mouse was sacrificed using ether. Then, a microtube was connected to trachea. PBS (phosphate-buffered saline, 0.8 ml) was injected and recovered through the microtube, which was repeated twice, resulting in the obtainment of bronchoalveolar lavage fluid (BALF). The fluid was centrifuged to separate cells in airway lumen and various proteins secreted from the cells and lung. The separated cells were fixed on a slide using cytospin and stained with Diff-Quick staining solution. Photographs were taken by a digital camera attached on Carzeiss microscope (model: […]). 5 random regions per each sample were picked to count eosinophiles, and the percentage of eosinophiles in each sample was shown in FIG. 2.

Row | Compound | Percentage of eosinophiles ([1]; 1.5 mg/kg orally once a day) [%] | Percentage of eosinophiles ([1]; 1.5 mg/kg orally once a day, listed as cyanidin glycoside) [%] | Percentage of eosinophiles ([1]; 4.5 mg/kg orally once a day) [%] | Percentage of eosinophiles ([1]; 4.5 mg/kg orally once a day, listed as cyanidin glycoside) [%] | inflammation in bronchi [2] | inflammation-inhibiting effect ([3]; 0.5 mg/kg, data not shown) | inflammation in bronchi ([3]; 1.25 mg/kg, 48 hours after treatment, FIG. 3) | accumulation of eosinophiles in airway ([4]; 0.5 mg/kg and 1.25 mg/kg, intraperitoneal injection) | percentage of eosinophiles in airway ([4]; 0.5 mg/kg) [%] | percentage of eosinophiles in airway ([4]; 1.25 mg/kg) [%]
1 | OC[C@H]1O[C@@H](Oc2cc3c(O)cc(O)cc3[o+]c2-c2ccc(O)c(O)c2)[C@H](O)[C@@H](O)[C@@H]1O [Cyanidin glycoside, cyanidin 3-O-β-glucopyranoside] | 49.5 ± 5.8 | 49 | 38.2 ± 6.2 | 38 | remarkably reduced |  |  |  |  | 
2 | Oc1ccc(-c2[o+]c3cc(O)cc(O)c3cc2O)cc1.[Cl-] [pelargonidin, 3,5,7-trihydroxy-2-(4-hydroxyphenyl)-1-benzopyrylium chloride] |  |  |  |  |  | outstanding | remarkably reduced | inhibited | 30 | 20
